These results are taken from patent publication US20230348376A1 (TEIJIN PHARMA LIMITED, priority 2020, published 2023).

Assay [1] concerns rat oligodendrocyte progenitor cells. As to the kind of experiment: Promotive activity of rat oligodendrocyte progenitor cell differentiation-1 (MBP gene expression, mRNA). The assay is classed as cell-based. Conditions: Rattus norvegicus, Oligodendrocyte progenitor cell, 96 h, read-out: promotive activity at T3 base (MBP gene expression; DMSO 0%, T3 100%), 4 days, MBP/β actin mRNA. As to the method: Regarding vitamin D derivatives, which was confirmed to act on the vitamin D receptor (VDR) in Example 352, the promotive activity of oligodendrocyte progenitor cell (OPC) differentiation was evaluated by MBP gene expression (mRNA).
A forebrain obtained from SD rat (Charles River Japan, 1 day old) was crushed with 70 μm Cell Strainer (Falcon #352350), and a cell suspension was prepared by collecting the cells in oligodendrocyte progenitor cell separation medium (20% FBS/2 mM Glutamax (Gibco #35050-061)/i mM sodium pyruvate (Gibco #11360-070)/1% penicillin-streptomycin (Invitrogen #15140-122)/DMEM (Gibco #11960-044)). The cell suspension was seeded in a poly-D-lysine coated T75 flask (Thermo Fisher Scientific #132704) and cultured for about 2 weeks. After culturing, the flask was shaken using a rotary shaker ([…] #WB-101SRC) for about 1 hour (37° C., 100 rpm), and the supernatant was discarded to remove microglia. Subsequently, oligodendrocyte progenitor cell separation medium was added to the flask, and the mixture was similarly shaken for about 22 hours (37° C., 200 rpm), and the supernatant was collected to prepare oligodendrocyte progenitor cells.
The oligodendrocyte progenitor cell prepared was suspended in a differentiation medium (2% B27 (Thermo Fisher Scientific, Inc. #17504-044)/1% penicillin-streptomycin (Invitrogen Corporation #15140-122)/10 ng/mL CNTF (PeproTech Inc. #AF-450-13)/DMEM (Gibco #11960-044)), and seeded on a 96-well plate coated with poly-L-ornithine (FUJIFILM Wako Pure Chemical Corporation #163-27421) under the condition of 0.65×10^4 cells/well, and on a 384-well plate under the condition of 2×10^3 cells/well using an automatic dispensing system (LABCYTE #Echo555). […] After culturing, the cells seeded on the 96-well plate were subjected to immunostaining against MBP using following methods: fixation (4% paraformaldehyde solution, 30 minutes, room temperature), PBS washing, membrane permeation treatment (0.1% Trion X-100 (SIGMA #X100-100ML)/PBS, 3 minutes, room temperature), blocking (3% BSA (SIGMA #A9647-10G)/PBS, 1 hour, room temperature), primary antibody reaction (MBP antibody (abcam plc #ab40390), 2.5 μg/mL, 4° C., 24 hours), PBS washing, secondary antibody reaction (Alexa488 anti-rabbit IgG (Thermo Fisher Scientific, Inc. #A-11034), 5 μg/mL, room temperature, 1 hour), PBS washing, and nuclear staining (Hoechst33342 (DOJINDO #NU043), 10 μg/mL, room temperature, 5 minutes). Subsequently, images of each well were acquired using a fluorescence microscope (KEYENCE CORPORATION #BZ-X800), the number of MBP-positive cells and Hoechst 33342-positive cells were measured using an image analysis application (KEYENCE CORPORATION #BZ-X800 Analyzer), and then the ratio (the number of MBP-positive cells/the number of Hoechst33342-positive cells) was calculated. The cells seeded on the 384-well plate were subjected to real-time PCR using Cells-to-CT 1-Step TaqMan Kit (Thermo Fisher Scientific, Inc. #A25602) and QuantStudio 12K Flex Real-Time PCR System (Thermo Fisher Scientific, Inc. #4472380). The experiment was performed in accordance with the protocol attached to the kit. MBP (Thermo Fisher Scientific, Inc. #Assay ID Rn00690616_ml) and β actin (Thermo Fisher Scientific, Inc. #Assay ID Rn00667869_ml) were used as primers, and the expression levels of each were measured and the ratio (MBP/β actin) was calculated.

For a further assay, the target named is T1, human VDR (Homo sapiens, UniProt P11473).
T1 sequence (P11473 1-427): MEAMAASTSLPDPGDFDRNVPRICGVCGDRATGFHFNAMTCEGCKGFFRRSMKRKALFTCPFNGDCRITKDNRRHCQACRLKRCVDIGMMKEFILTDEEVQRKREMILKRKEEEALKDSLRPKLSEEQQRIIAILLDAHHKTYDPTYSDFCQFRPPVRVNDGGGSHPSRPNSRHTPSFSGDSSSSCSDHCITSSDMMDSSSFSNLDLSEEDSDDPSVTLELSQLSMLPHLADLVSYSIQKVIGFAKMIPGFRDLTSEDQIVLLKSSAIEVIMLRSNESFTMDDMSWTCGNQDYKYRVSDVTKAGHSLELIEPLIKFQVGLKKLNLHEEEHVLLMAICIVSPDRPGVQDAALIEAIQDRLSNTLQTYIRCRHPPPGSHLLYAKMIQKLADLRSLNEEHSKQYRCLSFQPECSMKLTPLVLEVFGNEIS
T1 sequence (P19793 1-462 partner): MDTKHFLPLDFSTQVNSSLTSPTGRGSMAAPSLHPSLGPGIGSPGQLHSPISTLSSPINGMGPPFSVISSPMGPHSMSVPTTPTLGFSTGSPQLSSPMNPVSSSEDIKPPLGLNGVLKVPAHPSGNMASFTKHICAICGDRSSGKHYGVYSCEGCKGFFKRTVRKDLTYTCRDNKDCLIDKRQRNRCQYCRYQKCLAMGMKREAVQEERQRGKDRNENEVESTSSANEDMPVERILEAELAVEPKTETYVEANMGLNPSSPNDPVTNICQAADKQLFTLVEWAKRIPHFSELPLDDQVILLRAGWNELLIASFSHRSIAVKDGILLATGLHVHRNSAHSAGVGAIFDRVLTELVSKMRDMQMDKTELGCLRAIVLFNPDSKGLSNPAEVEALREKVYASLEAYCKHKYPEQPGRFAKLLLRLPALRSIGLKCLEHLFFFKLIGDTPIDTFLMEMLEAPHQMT
As to the kind of experiment: Evaluation of VDR transcription activity in human osteoblasts (HOS cells), luciferase reporter. The conditions noted are these: Activity (EC50, VDR transcription activity), HOS cells transfected with human VDR, human RXRα and DR3 luciferase reporter; 21 hours.

Some results are limits rather than exact numbers.

Usually EC50 stands for the concentration at which the effect is half-maximal. A low value points to greater potency. For `C=C1[C@H](O)CC(=C/C=C2\CCC[C@]3(C)[C@@H]([C@H](C)CN4CC(CC(F)F)C4)CC[C@@H]23)C[C@H]1O` [Compound A019, (1R,3R)-5-(2-((1R,3aS,7aR,E)-1-((S)-1-(3-(2,2-difluoroethyl)azetidin-1-yl)propan-2-yl)-7a-methyloctahydro-4H-inden-4-ylidene)ethylidene)-2-methylenecyclohexane-1,3-diol], the activation at 1 µM in assay [1] was at least 20%. The molecule also returned an EC50 at human VDR of 10 to 100 nM.
On to `C=C1[C@H](O)CC(=C/C=C2\CCC[C@]3(C)[C@@H]([C@H](C)CN4CC[C@H](C)C4)CC[C@@H]23)C[C@H]1O` [Compound B002, (1R,3R)-5-(2-((1R,3aS,7aR,E)-7a-methyl-1-((S)-1-((S)-3-methylpyrrolidin-1-yl)propan-2-yl)octahydro-4H-inden-4-ylidene)ethylidene)-2-methylenecyclohexane-1,3-diol], for which the activation at 1 µM in assay [1] is at least 20%. For the same molecule, the EC50 on human VDR fell in the range of 10 to 100 nM.
For `C[C@@H]1CCN(C[C@@H](C)[C@H]2CC[C@H]3/C(=C/C=C4C[C@@H](O)C[C@H](O)C4)CCC[C@]23C)C1` [Compound B004, (1R,3R)-5-(2-((1R,3aS,7aR,E)-7a-methyl-1-((S)-1-((R)-3-methylpyrrolidin-1-yl)propan-2-yl)octahydro-4H-inden-4-ylidene)ethylidene)cyclohexane-1,3-diol] the same measures were at least 20% and 1 to 10 nM.
Consider `C=C1/C(=C\C=C2/CCC[C@]3(C)[C@@H]([C@H](C)CN4CC[C@H](OC(F)F)C4)CC[C@@H]23)C[C@@H](O)C[C@@H]1O` [Compound B047, (1R,3S,Z)-5-(2-((1R,3aS,7aR,E)-1-((S)-1-((S)-3-(difluoromethoxy)pyrrolidin-1-yl)propan-2-yl)-7a-methyloctahydro-4H-inden-4-ylidene)ethylidene)-4-methylenecyclohexane-1,3-diol], for which the activation at 1 µM in assay [1] is at least 20%. For the same molecule, the EC50 at human VDR was in the range of 10 to 100 nM.
For `C=C1/C(=C\C=C2/CCC[C@]3(C)[C@@H]([C@H](C)CN4CC[C@@H](OC(F)F)C4)CC[C@@H]23)C[C@@H](O)C[C@@H]1O` [Compound B048, (1R,3S,Z)-5-(2-((1R,3aS,7aR,E)-1-((S)-1-((R)-3-(difluoromethoxy)pyrrolidin-1-yl)propan-2-yl)-7a-methyloctahydro-4H-inden-4-ylidene)ethylidene)-4-methylenecyclohexane-1,3-diol] the same measures were at least 20% and 10 to 100 nM.
Regarding `C=C1/C(=C\C=C2/CCC[C@]3(C)[C@@H]([C@H](C)CN4CC[C@H](CCC(F)F)C4)CC[C@@H]23)C[C@@H](O)C[C@@H]1O` [Compound B059, (1R,3S,Z)-5-(2-((1R,3aS,7aR,E)-1-((S)-1-((S)-3-(3,3-difluoropropyl)pyrrolidin-1-yl)propan-2-yl)-7a-methyloctahydro-4H-inden-4-ylidene)ethylidene)-4-methylenecyclohexane-1,3-diol], in assay [1], the activation at 1 µM is at least 20%. Moreover, the EC50 at human VDR is 100 to 1000 nM.
Regarding `C=C1[C@H](O)CC(=C/C=C2\CCC[C@]3(C)[C@@H]([C@H](C)CN4CC[C@H](CCC(F)F)C4)CC[C@@H]23)C[C@H]1O` [Compound B061, (1R,3R)-5-(2-((1R,3aS,7aR,E)-1-((S)-1-((S)-3-(3,3-difluoropropyl)pyrrolidin-1-yl)propan-2-yl)-7a-methyloctahydro-4H-inden-4-ylidene)ethylidene)-2-methylenecyclohexane-1,3-diol], the activation at 1 µM in assay [1] was at least 20%. This molecule yielded an EC50 on human VDR of 1 to 10 nM.
Regarding `C=C1[C@H](O)CC(=C/C=C2\CCC[C@]3(C)[C@@H]([C@H](C)CN4CC[C@@H](CCC(F)F)C4)CC[C@@H]23)C[C@H]1O` [Compound B062, (1R,3R)-5-(2-((1R,3aS,7aR,E)-1-((S)-1-((R)-3-(3,3-difluoropropyl)pyrrolidin-1-yl)propan-2-yl)-7a-methyloctahydro-4H-inden-4-ylidene)ethylidene)-2-methylenecyclohexane-1,3-diol], the activation at 1 µM in assay [1] is at least 20%. This molecule also showed an EC50 on human VDR of 10 to 100 nM.
`C[C@H](CCN1CC[C@H](CC(F)F)C1)[C@H]1CC[C@H]2/C(=C/C=C3C[C@@H](O)C[C@H](O)C3)CCC[C@]12C` [Compound B082, (1R,3R)-5-(2-((1R,3aS,7aR,E)-1-((R)-4-((R)-3-(2,2-difluoroethyl)pyrrolidin-1-yl)butan-2-yl)-7a-methyloctahydro-4H-inden-4-ylidene)ethylidene)cyclohexane-1,3-diol]: the activation at 1 µM in assay [1] was at least 20%. For the same molecule, on human VDR, the EC50 was 10 to 100 nM.
For the molecule `C=C1/C(=C\C=C2/CCC[C@]3(C)[C@@H]([C@H](C)CN4CCC[C@H](C(C)(F)F)C4)CC[C@@H]23)C[C@@H](O)C[C@@H]1O` [Compound C052, (1R,3S,Z)-5-(2-((1R,3aS,7aR,E)-1-((S)-1-((S)-3-(1,1-difluoroethyl)piperidin-1-yl)propan-2-yl)-7a-methyloctahydro-4H-inden-4-ylidene)ethylidene)-4-methylenecyclohexane-1,3-diol], in assay [1], the activation at 1 µM is at least 20%. The EC50 on human VDR was in the range of 10 to 100 nM.
Consider `C=C1/C(=C\C=C2/CCC[C@]3(C)[C@@H]([C@H](C)CN4CCC[C@H](C(C)(F)F)C4)CC[C@@H]23)C[C@@H](O)[C@H](C)[C@@H]1O` [Compound C054, (1R,2S,3S,Z)-5-(2-((1R,3aS,7aR,E)-1-((S)-1-((S)-3-(1,1-difluoroethyl)piperidin-1-yl)propan-2-yl)-7a-methyloctahydro-4H-inden-4-ylidene)ethylidene)-2-methyl-4-methylenecyclohexane-1,3-diol], for which the activation at 1 µM in assay [1] was at least 20%. This molecule displayed an EC50 at human VDR of 10 to 100 nM.
Turning to `C=C1/C(=C\C=C2/CCC[C@]3(C)[C@@H]([C@@H](C)CN4CCOCC4)CC[C@@H]23)C[C@@H](O)[C@H](C)[C@@H]1O` [Compound D003, (1R,2S,3S,Z)-2-methyl-5-(2-((1R,3aS,7aR,E)-7a-methyl-1-((R)-1-morpholinopropan-2-yl)octahydro-4H-inden-4-ylidene)ethylidene)-4-methylenecyclohexane-1,3-diol], in assay [1], the activation at 1 µM was at least 20%. Moreover, the 50% effective concentration (EC50) on human VDR fell in the range of 10 to 100 nM.
